From article PMC10648349, “Aromatic Diboronic Acids as Effective KPC/AmpC Inhibitors” (Molecules, 2023)
Values after ≈ are worked out from the molar mass of the structure shown.

Columns and labels:
C. krusei ATCC 6258 = experiment: antifungal activity (disc-diffusion, MIC, MFC); assay type: cell-based, Candida krusei; settings: Pichia kudriavzevii, ATCC6258; for MIC: fluconazole by Etest
How it was run: (§1)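 Disc-diffusion (0.4 mg compound per disc, DMSO solutions), MIC, and MBC for bacteria or MFC for yeasts, run per EUCAST and CLSI recommendations. References: nitrofurantoin for Gram-negative rods, linezolid for Gram-positive bacteria, fluconazole for fungi.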

[1] = tested on: P. aeruginosa MUW 700 cAmpC-positive; experiment: checkerboard microdilution, antibiotic plus tested agent; assay type: cell-based, Pseudomonas aeruginosa
How it was run: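 Chequerboard layout: tested agent in three two-fold steps (4–16 mg/L) crossed with seven β-lactam dilutions (1–64 mg/L), meropenem for KPC strains and ceftazidime for the cAmpC strain. FICI from first non-growth wells, off-scale MICs raised one doubling; ≤0.5 counts as synergy, >4 antagonism.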

B. subtilis ATCC 6633 = experiment: direct antimicrobial activity (disc-diffusion); assay type: cell-based; settings: Bacillus subtilis, ATCC6633; 0.4 mg per disc, 9 mm disc (linezolid 0.03 mg, 6 mm disc); - no zone; read-out: Diameter of inhibition zone
How it was run: as §1

[2] = tested on: K. pneumoniae ATCC 700603 ESBL-positive; experiment: combination disc test CDT-ESBL; assay type: cell-based; settings: Klebsiella pneumoniae, ATCC700603, read-out: Diameter of inhibition zone, CAZ-30 disc with agent; for zone of inhibition at 100 µg/disc: agent 0.1 mg per disc
[3] = tested on: P. aeruginosa MUW 700 AmpC(+); experiment: MIC of tested agent alone, microdilution; assay type: cell-based; settings: Pseudomonas aeruginosa; read-out: MIC of agent alone
How it was run: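 Two-fold checkerboard dilutions pair β-lactams (1–64 mg/L) with tested agents (4–16 mg/L); agent MICs alone come from parallel microdilution.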

[4] = tested on: K. pneumoniae ATCC BAA 1705 KPC-2-positive; experiment: combination disc test CDT-KPC; assay type: cell-based; settings: Klebsiella pneumoniae, BAA1705, read-out: Diameter of inhibition zone, MEM-10 disc with agent; for zone of inhibition at 100 µg/disc: agent 0.1 mg per disc
[5] = tested on: C. parapsilosis ATCC 22019; experiment: antifungal activity (disc-diffusion, MIC, MFC); assay type: cell-based, Candida parapsilosis; settings: Lodderomyces parapsilosis, ATCC22019; for MIC: fluconazole by Etest
How it was run: as §1

C. tropicalis IBA 171 = experiment: antifungal activity (disc-diffusion, MIC, MFC); assay type: cell-based; settings: Candida tropicalis, IBA171; fluconazole by Etest
How it was run: as §1

S. cerevisiae ATCC 9763 = experiment: antifungal activity (disc-diffusion, MIC, MFC); assay type: cell-based; settings: Saccharomyces cerevisiae, ATCC9763; for MIC: fluconazole by Etest
How it was run: as §1

C. tropicalis ATCC 750 = experiment: antifungal activity (disc-diffusion, MIC, MFC); assay type: cell-based; settings: Candida tropicalis, ATCC750; fluconazole by Etest
How it was run: as §1

C. albicans ATCC 90028 = experiment: antifungal activity (disc-diffusion, MIC, MFC); assay type: cell-based; settings: Candida albicans, ATCC90028; fluconazole by Etest
How it was run: as §1

[6] = tested on: E. coli 77 CMY-2-positive; experiment: combination disc test CDT-AmpC; assay type: cell-based; settings: Escherichia coli, read-out: Diameter of inhibition zone, CAZ-30 disc with agent; for zone of inhibition at 100 µg/disc: agent 0.1 mg per disc
[7] = MTT-based viability assay; assay type: cell-based; settings: human, MRC-5 human fibroblasts, 72 h, read-out: Viability of MRC-5 cells (% of viable cells ± SD)
How it was run: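 Percent viable cells relative to control, measured in triplicate by MTT read-out at 570 nm. Cells: MRC-5 human fibroblasts cultured at 37 °C, 5% CO2 in MEME plus 10% FBS.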

S. aureus ATCC 6538P = experiment: direct antimicrobial activity (disc-diffusion, MIC, MBC); assay type: cell-based; settings: Staphylococcus aureus, ATCC6538P; for zone of inhibition at 0.4 mg/disc: 0.4 mg per disc, 9 mm disc (linezolid 0.03 mg, 6 mm disc), - no zone, read-out: Diameter of inhibition zone
How it was run: as §1

E. faecalis ATCC 29212 = experiment: as above; assay type: cell-based; settings: Enterococcus faecalis, ATCC29212; for zone of inhibition at 0.4 mg/disc: 0.4 mg per disc, 9 mm disc (linezolid 0.03 mg, 6 mm disc), - no zone, read-out: Diameter of inhibition zone
How it was run: as §1

[8] = tested on: S. aureus ATCC 43300 MRSA; experiment: as above; assay type: cell-based; settings: Staphylococcus aureus; for zone of inhibition at 0.4 mg/disc: 0.4 mg per disc, 9 mm disc (linezolid 0.03 mg, 6 mm disc), - no zone, read-out: Diameter of inhibition zone
How it was run: as §1

E. faecium ATCC 6057 = experiment: as above; assay type: cell-based; settings: Enterococcus faecium, ATCC6057; for zone of inhibition at 0.4 mg/disc: 0.4 mg per disc, 9 mm disc (linezolid 0.03 mg, 6 mm disc), - no zone, read-out: Diameter of inhibition zone
How it was run: as §1

[9] = tested on: S. epidermidis ATCC 12228; experiment: as above; assay type: cell-based; settings: Staphylococcus epidermidis, ATCC12228; for zone of inhibition at 0.4 mg/disc: 0.4 mg per disc, 9 mm disc (linezolid 0.03 mg, 6 mm disc), - no zone, read-out: Diameter of inhibition zone
How it was run: as §1

[10] = 0.4 mg per disc, 9 mm disc (fluconazole 0.025 mg, 6 mm disc), - no zone, read-out: Diameter of inhibition zone

Row | Structure (SMILES) | MIC (C. krusei ATCC 6258) | Average FICI with ceftazidime [1] | Interpretation of the average FICI with ceftazidime [1] | Interpretation of the lowest FICI with ceftazidime [1] | The lowest FICI with ceftazidime [1] | zone of inhibition at 0.4 mg/disc (B. subtilis ATCC 6633) | MIC [3] | MIC [5] | MIC (C. tropicalis IBA 171) | MIC (S. cerevisiae ATCC 9763) | MIC (C. tropicalis ATCC 750) | MIC (C. albicans ATCC 90028) | viability at 72 h, 12.5 mg/L [7] | viability at 72 h, 25 mg/L [7] | viability at 72 h, 50 mg/L [7] | MIC (S. aureus ATCC 6538P) | zone of inhibition at 0.4 mg/disc (S. aureus ATCC 6538P) | MIC (E. faecalis ATCC 29212) | MIC [8] | MIC (E. faecium ATCC 6057) | other results
1 | OB(O)c1cc(F)c(B(O)O)cc1F [1e] | > 400 µg/mL | 0.38 | S (FICI ≤ 0.5, synergy) | S (FICI ≤ 0.5, synergy) | 0.29 | 28 mm | 200 µg/mL | > 400 µg/mL | > 400 µg/mL | 400 µg/mL (≈ 1980 µM) | > 400 µg/mL | > 400 µg/mL | 107 ± 3.3% | 105 ± 10% | 117 ± 4.6% | 12.5 µg/mL (≈ 62 µM) | 20 mm | 200 µg/mL (≈ 991 µM) | 25 µg/mL (≈ 124 µM) | 100 µg/mL (≈ 496 µM) | zone of inhibition at 0.4 mg/disc (C. krusei ATCC 6258; [10]): 16 mm; zone of inhibition at 100 µg/disc [2]: 15 mm; zone of inhibition at 100 µg/disc [4]: 11 mm; zone of inhibition at 0.4 mg/disc [5, 10]: 15 mm; zone of inhibition at 0.4 mg/disc (S. cerevisiae ATCC 9763; [10]): 13 mm; zone of inhibition at 100 µg/disc [6]: 20 mm; zone of inhibition at 0.4 mg/disc (E. faecalis ATCC 29212): 15 mm; zone of inhibition at 0.4 mg/disc [8]: 26 mm; zone of inhibition at 0.4 mg/disc (E. faecium ATCC 6057): 14 mm; MIC [9]: 25 µg/mL (≈ 124 µM); zone of inhibition at 0.4 mg/disc [9]: 21 mm
2 | OB(O)c1ccc(B(O)O)c(F)c1F [1c] | 400 µg/mL (≈ 1980 µM) | 0.32 | S (FICI ≤ 0.5, synergy) | S (FICI ≤ 0.5, synergy) | 0.17 | 28 mm | 400 µg/mL | > 400 µg/mL | > 400 µg/mL | 200 µg/mL (≈ 991 µM) | > 400 µg/mL | > 400 µg/mL | 112 ± 3.8% | 103 ± 3% | 96.7 ± 3.3% | 25 µg/mL (≈ 124 µM) | 22 mm | 200 µg/mL (≈ 991 µM) | 50 µg/mL (≈ 248 µM) | 200 µg/mL (≈ 991 µM) | zone of inhibition at 100 µg/disc [2]: 14 mm; zone of inhibition at 100 µg/disc [4]: 6 mm; zone of inhibition at 100 µg/disc [6]: 20 mm; zone of inhibition at 0.4 mg/disc (E. faecalis ATCC 29212): 16 mm; zone of inhibition at 0.4 mg/disc [8]: 22 mm; zone of inhibition at 0.4 mg/disc (E. faecium ATCC 6057): 15 mm; MIC [9]: 50 µg/mL (≈ 248 µM); zone of inhibition at 0.4 mg/disc [9]: 28 mm
3 | OB(O)c1cc(F)c(F)c(B(O)O)c1 [2d] | 400 µg/mL (≈ 1980 µM) | 0.35 | S (FICI ≤ 0.5, synergy) | S (FICI ≤ 0.5, synergy) | 0.26 | 15 mm | > 400 µg/mL | > 400 µg/mL | > 400 µg/mL | > 400 µg/mL | > 400 µg/mL | 400 µg/mL (≈ 1980 µM) | 107 ± 7.6% | 88 ± 4.3% | 75.2 ± 9.4% | 50 µg/mL (≈ 248 µM) | 22 mm | 200 µg/mL (≈ 991 µM) | 100 µg/mL (≈ 496 µM) | 200 µg/mL (≈ 991 µM) | zone of inhibition at 100 µg/disc [2]: 13 mm; zone of inhibition at 100 µg/disc [4]: 6 mm; zone of inhibition at 100 µg/disc [6]: 21 mm; zone of inhibition at 0.4 mg/disc (E. faecalis ATCC 29212): 14 mm; zone of inhibition at 0.4 mg/disc [8]: 19 mm; zone of inhibition at 0.4 mg/disc (E. faecium ATCC 6057): 14 mm; MIC [9]: 50 µg/mL (≈ 248 µM); zone of inhibition at 0.4 mg/disc [9]: 12 mm
4 | OB(O)c1ccc(B(O)O)c(B(O)O)c1 [4b, benzene-1,2,4-triboronic] | > 400 µg/mL | 0.30 | S (FICI ≤ 0.5, synergy) | S (FICI ≤ 0.5, synergy) | 0.15 | 18 mm | > 400 µg/mL | > 400 µg/mL | > 400 µg/mL | > 400 µg/mL | > 400 µg/mL | > 400 µg/mL | 114 ± 1.8% | 106.4 ± 0.1% | 97.3 ± 13.6% | 25 µg/mL (≈ 119 µM) | 20 mm | 200 µg/mL (≈ 954 µM) | 200 µg/mL (≈ 954 µM) | 200 µg/mL (≈ 954 µM) | zone of inhibition at 300 µg/disc ([2]; agent 0.3 mg per disc): 14 mm; zone of inhibition at 300 µg/disc ([4]; agent 0.3 mg per disc): 14 mm; zone of inhibition at 300 µg/disc ([6]; agent 0.3 mg per disc): 21 mm; MIC [9]: 200 µg/mL (≈ 954 µM); zone of inhibition at 0.4 mg/disc [9]: 20 mm
